Results on 1 compound are retold here after patent US11498939B2, “Glucose polymers for peritoneal dialysis” (ROQUETTE FRERES, priority 2016, dated 2022).

SMILES strings stand for the structures.

The nature of this data set: Effects of the sterilization on GDP production. It counts as physicochemical. To be noted: 4% solution in deionized water; sterilization at 121° C. for 15 minutes. On the procedure:
In this example, the inventors studied the influence of sterilization on the production of GDPs, namely 5-hydroxymethyl furaldehyde (5-HMF), furaldehyde and 3,4-dideoxyglucosone-3-ene (3,4-DGE), of solutions using various glucose polymers or glucose.
20 ml solutions containing 4% of each of the substances to be tested were prepared in deionized water. The GDP content was measured after sterilization at 121° C. for 15 minutes.
The 5-HMF and furaldehyde content was determined by liquid chromatography using 5-HMF standards (Merck—Ref. 8.206.78.001) or furaldehyde standards for the calibration respectively), and detection by UV spectrophotometry at 280 nm. For the chromatography, a column with a particle size of 9 μm, 8% crosslinking, an internal diameter of 7.8 mm and a length of 300 mm (HPX 87H column—Biorad—Ref. 125.0140) was used. The conditions were the following: eluent 5 mN H2SO4 […], flow rate of 0.8 ml/min.
The 3,4-DGE content was determined by liquid chromatography (using pyrazinecarboxamide (Sigma—Ref. P7136) for the calibration) and detection by UV spectrophotometry at 230 nm. For the chromatography, a column with a particle size of 5 μm, a pore size of 120 Å size, an internal diameter of 4.6 mm and a length of 15 cm (Supelcosil LC-18—Supelco—Ref. 58230) was used. The conditions were the following: elution solvent H2O/MeOH, flow rate of 1.0 ml/min.

In the case of `OC[C@H]1OC(O)[C@H](O)[C@@H](O)[C@@H]1O` (stereo partly shown) [glucose, anhydrous dextrose], the “GDP content after sterilization (5-HMF, furaldehyde, 3,4-DGE)” value is on record as “much higher than that of the glucose polymers”.
